In test [1] the test system is S. aureus ATCC 29213. The test can be described thus: MIC assay. The test is classed as cell-based, Staphylococcus aureus. The protocol:
1. Staphylococcus aureus—the principal staphylococcal test micro-organism used in these studies was Staphylococcus aureus ATCC 29213. This strain is the one recommended for QC/QA purposes in Minimum Inhibitory Concentration (MIC) assays by the US Clinical and Laboratory Standards Institute (formerly the NCCLS), an FDA-recognised body.
(§1) The staphylococci and enterococci were cultured and maintained on Mueller-Hinton Medium (agar and broth) at pH 7.2; they were incubated aerobically at 37° C. for 24 hours.
(§2) This is a standard international method for quantitatively assessing the antimicrobial activity of a compound in a liquid medium. The method used a 96-well microtitre plate, capable of holding about 200 μl of liquid per well. […] The culture media were as described above for the relevant test organisms.
(§3) The wells were inoculated with a liquid suspension of freshly grown micro-organism and incubated under the conditions described above. After incubation, the microtitre plate was examined visually (with the aid of a light box) for cloudiness in each well, which would indicate microbial growth. The MIC value was recorded as the lowest concentration of test compound required to inhibit microbial growth, i.e., the lowest concentration for which the liquid in the well remained clear.
(§4) The assays were conducted in duplicate and included both negative (culture medium only) and positive (culture medium, diluting solvent and inoculum) controls.
(§5) The following experiments all used S. aureus ATCC 29213 as the test organism. MIC, MBC and DDA assays, as described above, were carried out using a range of different benzoquinones and hydroquinones. Supplemented DDA assays, in the presence of salt, lipid and blood, were also conducted.

The test system of test [2] is P. acnes NCTC 737. The test can be described thus: Disc diffusion assay (DDA). The test is classed as cell-based, Propionibacterium acnes. The settings on record: for zone of inhibition at 200 µg/disc: Cutibacterium acnes. The protocol: (§6) The Propionibacterium spp organisms were cultured and maintained on Wilkins-Chalgren Anaerobe Medium (agar and broth) at pH 6.0; cultures were incubated anaerobically at 37° C. for 72 hours.
(§7) A sterile paper disc was impregnated with a sample of the test compound and a minimum of 30 minutes allowed for the solvents to evaporate as far as possible. The disc was then placed on an agar plate onto which the test micro-organism had been inoculated. The plate was then incubated under the conditions described above, following which it was examined visually for signs of bacterial growth. […] The diameter of this zone of “inhibition” was measured using a ProtoCOL™ automated zone sizer (Synbiosis, Cambridge, UK).
(§8) The area of the zone of inhibition was calculated from the measured zone diameter (D) using the formula π(D/2)^2.
(§9) For most DDA assays, 200 μg of each compound was loaded onto each disc.
For orientation: Agar diffusion results depend on both activity and mobility in agar.

Test [3] concerns P. acnes NCTC 737. The test can be described thus: MBC assay. The test is classed as cell-based, Propionibacterium acnes. The protocol: as §6
(§10) This assay, normally carried out after an MIC assay, determines the minimum concentration of a compound that is lethal to the micro-organism being tested.
(§11) These samples were then individually sub-cultured on non-selective agar medium, under the incubation conditions described above. Following incubation they were examined visually for bacterial growth.
(§12) MIC, MBC and DDA assays, as described above, were carried out using a range of different benzoquinones and hydroquinones. Supplemented DDA assays, in the presence of salt and lipid, were also conducted.

The subject of test [4] is P. acnes NCTC 737. The test can be described thus: MIC assay. The test is classed as cell-based, Propionibacterium acnes. The protocol: 2. Propionibacterium spp.—the principal propionibacterial strain used in these studies was Propionibacterium acnes NCTC 737.
as §6, §2, §3, §4, §12

Test [5] has as its system S. aureus ATCC 29213. The test can be described thus: MBC assay. In kind it is cell-based, Staphylococcus aureus. The protocol: as §1, §10, §11, §5
Test [6] concerns S. aureus ATCC 29213. The test can be described thus: Supplemented disc diffusion assay. As to conditions: for zone of inhibition at 200 µg/disc: Staphylococcus aureus, ATCC29213, 24 h. In kind it is cell-based, Staphylococcus aureus. The protocol:
as §1, §7
(§13) Performance under these conditions can provide a more reliable indication of activity on topical application. For assays conducted using S. aureus strains, the supplements were defibrinated horse blood (5% v/v), lipid (Tween™ 80 at 1% v/v) and sodium chloride (100 mM). For those using Propionibacterium spp. strains, the supplements were lipid (Tween™ 80 at 1% v/v) and sodium chloride (100 mM).
as §5, §9

The test system of test [7] is P. acnes NCTC 737. The test can be described thus: Supplemented disc diffusion assay. In kind it is cell-based, Propionibacterium acnes. As to conditions: for zone of inhibition at 200 µg/disc: Cutibacterium acnes, NCTC737, 72 h. The protocol:
as §6, §7, §13, §12, §9

Test [8] relates to S. aureus ATCC 29213. The test can be described thus: Disc diffusion assay (DDA). As to conditions: for zone of inhibition at 200 µg/disc: Staphylococcus aureus. In kind it is cell-based, Staphylococcus aureus. The protocol:
as §1, §7, §8, §9

Converted amounts (≈) assume the structure as drawn. Like-named read-outs stand apart in the source and are kept apart here.

In general, MIC refers to the least concentration at which growth counts as inhibited. One may read the MBC as the lowest tested concentration that kills the bacteria rather than only halting them.

As for `Cc1cc(O)cc(C)c1O` [2,6-dimethyl-p-hydroquinone], the MIC came to 3.9 µg/mL (≈ 28.2 µM) in test [1] (S. aureus ATCC 29213, Mueller-Hinton broth pH 7.2, aerobic, 37° C., 24 hours) and 7.8 µg/mL (≈ 56.5 µM) in test [4] (P. acnes NCTC 737, Wilkins-Chalgren broth pH 6.0, anaerobic, 37° C., 72 hours). Further, the “DDA (diameter of zone of inhibition)” value in test [2] (P. acnes NCTC 737, unsupplemented agar, 200 μg per disc (2,6-dimethoxy-p-benzoquinone 100 μg)) is 0.0 mm; in test [8] (S. aureus ATCC 29213, unsupplemented agar, 200 μg per disc (thymoquinone 50 μg, 2,6-dimethoxy-p-benzoquinone 100 μg)), 40.88 mm. The MBC was 31.25 µg/mL (≈ 226 µM) in test [3] (P. acnes NCTC 737) and 7.8 µg/mL (≈ 56.5 µM) in test [5]. In addition, the MIC/MBC ratio was found to be 0.25 in test [3] (P. acnes NCTC 737) and 0.5 in test [5]. The “DDA + lipid” value in test [6] (S. aureus ATCC 29213, Tween 80 at 1% v/v, 200 μg per disc (thymoquinone 50 μg, 2,6-dimethoxy-p-benzoquinone 100 μg)) is given as 47.94 mm; in test [7] (P. acnes NCTC 737, Tween 80 at 1% v/v, 200 μg per disc (2,6-dimethoxy-p-benzoquinone 100 μg)), 0.0 mm. Also, the “DDA + blood” value in test [6] (S. aureus ATCC 29213, defibrinated horse blood 5% v/v, 200 μg per disc (thymoquinone 50 μg, 2,6-dimethoxy-p-benzoquinone 100 μg)) is on record as 25.53 mm. In addition, the “DDA + salt” value in test [6] (S. aureus ATCC 29213, sodium chloride 100 mM, 200 μg per disc (thymoquinone 50 μg, 2,6-dimethoxy-p-benzoquinone 100 μg)) was determined as 43.89 mm; in test [7] (P. acnes NCTC 737, sodium chloride 100 mM, 200 μg per disc (2,6-dimethoxy-p-benzoquinone 100 μg)), 0.0 mm.

On to `CC1=CC(=O)C(Cl)=CC1=O` [2-chloro-5-methyl-p-benzoquinone], for which the MIC in test [1] (Staphylococcus aureus, ATCC29213, S. aureus ATCC 29213, Mueller-Hinton broth pH 7.2, aerobic, 37° C., 24 hours, read-out: MIC) amounted to 15.6 µg/mL (≈ 99.6 µM); in test [4] (Cutibacterium acnes, NCTC737, P. acnes NCTC 737, Wilkins-Chalgren broth pH 6.0, anaerobic, 37° C., 72 hours, read-out: MIC) it was 15.6 µg/mL (≈ 99.6 µM). Also, the zone of inhibition at 200 µg/disc in test [2] (NCTC737, P. acnes NCTC 737, unsupplemented agar, 200 μg per disc (2,6-dimethoxy-p-benzoquinone 100 μg), read-out: DDA (diameter of zone of inhibition)) is 38.9 mm; in test [6] (S. aureus ATCC 29213, Tween 80 at 1% v/v, 200 μg per disc (thymoquinone 50 μg, 2,6-dimethoxy-p-benzoquinone 100 μg), read-out: DDA + lipid), 33.9 mm; in test [6] (S. aureus ATCC 29213, defibrinated horse blood 5% v/v, 200 μg per disc (thymoquinone 50 μg, 2,6-dimethoxy-p-benzoquinone 100 μg), read-out: DDA + blood), 17.7 mm; in test [6] (S. aureus ATCC 29213, sodium chloride 100 mM, 200 μg per disc (thymoquinone 50 μg, 2,6-dimethoxy-p-benzoquinone 100 μg), read-out: DDA + salt), 34.2 mm; in test [7] (P. acnes NCTC 737, Tween 80 at 1% v/v, 200 μg per disc (2,6-dimethoxy-p-benzoquinone 100 μg), read-out: DDA + lipid), 38.8 mm; in test [7] (P. acnes NCTC 737, sodium chloride 100 mM, 200 μg per disc (2,6-dimethoxy-p-benzoquinone 100 μg), read-out: DDA + salt), 37.2 mm. For the same compound, in test [8] (ATCC29213, S. aureus ATCC 29213, unsupplemented agar, 200 μg per disc (thymoquinone 50 μg, 2,6-dimethoxy-p-benzoquinone 100 μg), read-out: DDA (diameter of zone of inhibition)), the zone of inhibition at 200 µg/disc worked out at 34.5 mm. In addition, the MBC in test [3] (Cutibacterium acnes, NCTC737, P. acnes NCTC 737, read-out: MBC) stood at 15.6 µg/mL (≈ 99.6 µM); in test [5] (Staphylococcus aureus, ATCC29213, read-out: MBC) it was 15.6 µg/mL (≈ 99.6 µM). Further, the MIC/MBC ratio in test [3] (P. acnes NCTC 737) and in test [5] was 1 each time.

As to `O=C1C=CC(=O)C(Cl)=C1` [2-chloro-p-benzoquinone], the MIC was 31.2 µg/mL (≈ 219 µM) in test [1] (Staphylococcus aureus, ATCC29213, 24 h, pH 7.2) and 62.5 µg/mL (≈ 438 µM) in test [4] (Cutibacterium acnes, NCTC737, 72 h, pH 6). Also, the zone of inhibition at 200 µg/disc in test [2] (NCTC737, read-out: DDA (diameter of zone of inhibition)) came out at 25.8 mm; in test [6] (read-out: DDA + blood), 17.2 mm; in test [6] (read-out: DDA + lipid) it was 22.8 mm; in test [6] (read-out: DDA + salt), 26.2 mm; in test [7] (read-out: DDA + lipid) it was 31.4 mm; in test [7] (read-out: DDA + salt), 31.7 mm. The zone of inhibition at 200 µg/disc in test [8] (ATCC29213, read-out: DDA (diameter of zone of inhibition)) worked out at 25.3 mm. Moreover, the MBC in test [3] (Cutibacterium acnes, NCTC737) came out at 125 µg/mL (≈ 877 µM); in test [5] (Staphylococcus aureus, ATCC29213), 31.2 µg/mL (≈ 219 µM). For the same compound, the MIC/MBC ratio in test [3] (P. acnes NCTC 737) is on record as 0.5; in test [5] it was 1. The “activity against P. acnes NCTC 737 (in words)” value in test [4] is recorded as “strongly so”. In addition, the “effect of lipid on antimicrobial activity” value in test [7] (P. acnes NCTC 737, activity increases in the presence of lipid) is reported as “potentiated”.
